From paper PMC12143348, “Rapid and reversible fluorescent probe enables repeated snapshot imaging of AMPA receptors during synaptic plasticity” (Science Advances, 2025) come the findings set out here.

Structures are written as SMILES. “Also recorded” adds a separate entry of the source.

The target of one data set is T1, GluA4 (Mus musculus, UniProt Q9Z2W8).
T1 construct: expressed in transfected cells; host or cells: HEK293T
The data set is described as follows: Concentration-dependent binding of PFQX1(AF488), confocal live imaging of HEK293T cells expressing GluA4. As to conditions: n = 3, read-out: Kd / Affinity of PFQX1(AF488) to GluA4. On the procedure:
(§1) HEK293T cells were cotransfected with plasmids for AMPAR [5′UTR-GluA1^flip(R)-3′UTR, GluA2^flip(Q)-3′UTR, GluA3^flip(Q) (Y454A/R461G), and GluA4^flip(Q)], kainate receptor [GluK2(Q)], auxiliary subunits, or the control vector and transfection marker (EFGP-F or mCherry-F). Fluorophore-ligand conjugates were diluted in Hepes-buffered saline (HBS) buffer [20 mM Hepes (pH 7.4), 107 mM NaCl, 6 mM KCl, 1.2 mM MgSO4, 2 mM CaCl2, and 11.5 mM glucose] and added to the cells. Confocal live imaging was performed with LSM900 (Carl Zeiss) equipped with a 63×, numerical aperture (NA) = 1.4 oil-immersion objective. Fluorescence images were acquired by excitation at 405, 488, 561, or 640 nm derived from diode lasers.
For evaluating the concentration dependency of fluorophore-ligand conjugates, 0.1 nM probe in HBS was added to the dish. Then, probes in HBS were added stepwise to the dish to a final concentration of 0.3, 1, 3, 10, 30, 100, 300, 1000, and 3000 nM. Cell surface fluorescence intensity was quantified from the line scans of transfection marker positive cells and calculated with subtraction of background by ZEN blue software (Carl Zeiss). The membrane intensity was fitted with KaleidaGraph (Synergy software) to calculate the equilibrium constant value using the following equation: a + (b − a)/(1 + (x/c)^d). The equilibrium constant is regarded as the Kd in this study.

For a further data set, the target named is T2, GluA2flip(R) (Mus musculus, UniProt P23819, DEL765-802/Q607R).
T2 construct: expressed in transfected cells; host or cells: HEK293T
T2 sequence (P23819 with tags, fused parts or gaps isoform P23819-4 Q607R/DEL765-802): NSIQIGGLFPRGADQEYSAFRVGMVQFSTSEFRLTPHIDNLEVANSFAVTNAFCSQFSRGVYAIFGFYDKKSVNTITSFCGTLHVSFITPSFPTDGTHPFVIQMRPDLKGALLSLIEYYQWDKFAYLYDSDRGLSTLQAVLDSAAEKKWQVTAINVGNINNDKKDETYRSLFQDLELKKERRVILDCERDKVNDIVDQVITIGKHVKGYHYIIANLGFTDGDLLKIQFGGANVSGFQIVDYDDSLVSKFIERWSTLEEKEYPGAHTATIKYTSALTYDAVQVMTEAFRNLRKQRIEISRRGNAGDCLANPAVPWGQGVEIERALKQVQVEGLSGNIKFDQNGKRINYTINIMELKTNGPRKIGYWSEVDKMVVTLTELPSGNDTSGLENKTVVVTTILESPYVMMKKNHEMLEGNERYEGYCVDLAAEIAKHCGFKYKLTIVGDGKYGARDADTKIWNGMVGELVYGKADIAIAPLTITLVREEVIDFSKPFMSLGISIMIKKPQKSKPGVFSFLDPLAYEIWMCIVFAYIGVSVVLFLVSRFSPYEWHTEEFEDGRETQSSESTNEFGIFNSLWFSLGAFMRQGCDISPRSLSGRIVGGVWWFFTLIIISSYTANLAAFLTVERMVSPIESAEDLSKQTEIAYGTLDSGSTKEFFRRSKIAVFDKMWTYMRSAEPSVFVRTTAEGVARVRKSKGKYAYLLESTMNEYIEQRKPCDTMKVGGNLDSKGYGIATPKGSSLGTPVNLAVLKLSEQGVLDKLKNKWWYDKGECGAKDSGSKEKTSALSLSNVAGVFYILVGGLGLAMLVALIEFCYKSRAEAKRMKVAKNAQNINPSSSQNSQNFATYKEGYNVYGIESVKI
Nature of the data set: Concentration-dependent binding of PFQX1(AF488) to GluA2flip(R) expressed alone in HEK293T cells. Conditions: n = 3–4, read-out: Kd / Affinity of PFQX1(AF488) to GluA2flip(R) expressed alone (–). On the procedure:
as §1
(§2) For evaluating the concentration dependency of fluorophore-ligand conjugates, 0.1 nM probe in HBS was added to the dish. Then, probes in HBS were added stepwise to the dish to a final concentration of 0.3, 1, 3, 10, 30, 100, 300, 1000, and 3000 nM. Cell surface fluorescence intensity was quantified from the line scans of transfection marker positive cells and calculated with subtraction of background by ZEN blue software (Carl Zeiss). […]
(§3) (A) Concentration-dependent binding of PFQX1(AF488) to GluA2 flip(R) expressed with GSG1L or TARP γ7. […] (B) The surface intensity of PFQX1(AF488) was quantified. […]

The next data set has as its target T3, GluA2flip(R) + GSG1L (Mus musculus, UniProt P23819, DEL765-802/Q607R).
T3 construct: expressed in transfected cells; host or cells: HEK293T
The data set is described as follows: Concentration-dependent binding of PFQX1(AF488) to GluA2flip(R) expressed with GSG1L in HEK293T cells. As to conditions: n = 3–4, read-out: Kd / Affinity of PFQX1(AF488) to GluA2flip(R) with GSG1L. As for the experimental part:
as §1, §2, §3

Data set [1] can be described thus: pH-dependency of fluorescent intensity in GTA buffer (spectrofluorophotometer). The data set is classed as physicochemical. Conditions: 2 µM probe in GTA buffer pH 4–10, normalized to pH 10. As for the experimental part: Evaluation of the affinity of PFQX-amine
HEK293T cells were co-transfected with GluA2 flip(Q)-3’UTR and mCherry-F as a transfection marker. After washing the cells with HBS, 30 nM PFQX1(AF488) was added to the dish. Then, PFQX-amine in HBS was step-wisely added to the dish to a final […]
performed with confocal microscopy. Cell surface fluorescent intensity was quantified from the line scans of transfection marker positive cells calculated by ZEN blue software and calculated with subtraction of background. The membrane intensity was fitted with KaleidaGraph to calculate the IC50 value using the following equation:a + (b-a)/(1+(x/c)^d). The Ki value was calculated using the Cheng-Prusoff equation: Ki = IC50/(1+[S]/K d). In the equation, [S] and Kd were the concentration and dissociation constant of PFQX1(AF488), respectively. pH-dependency of fluorescent intensity
Fluorescent intensity was determined by spectrofluorophotometer RF-6000 (Shimadzu). […]
glutaric acid, 0.1 M Tris, 0.1 M 2-amino-2-methyl-1,3-propanediol) to a final concentration of 2 µM. pH value of GTA buffer was adjusted to 4, 5, 6, 7, 8, 9, and 10.
Fluorescent intensity was normalized by the intensity at pH 10.
For the evaluation in cells, HEK293T cells expressing GluA2 or primary cultured hippocampal neurons were used. […]

For the next data set, the system named is AMPARs. The data set is described as follows: Staining of AMPARs in acute cerebellar slices. It counts as binding, mouse. As to conditions: 30 nM probe; acute cerebellar slices; incubation at least 5 min. As for the experimental part: following secondary antibodies were used: donkey anti-mouse CF568 conjugated (Sigma, […]
1:1,000) and anti-rabbit Alexa Fluor Plus 488 conjugated (Invitrogen, A32731, 1,000).
Imaging was performed with confocal microscopy.
With two-step labeling, the cells were labeled as described in “Two -step labeling and PFQX1(AF488)staining in cultured neurons,” followed by immunostaining.
In fig. S9A, the cells were incubated with 500 nM CellTracker Red CMPTX (Invitrogen) instead of Calcein Red AM for 30 min at 37 °C to visualize the intracellular region before the immunostaining.
Preparation and staining of cerebellar acute brain slices
C57BL/6J mice (3 weeks) were anesthetized with isoflurane, and their brains were isolated and immediately transferred to ice-cold cutting solution buffer (120 mM Choline Chloride, 3 mM KCl, 8 mM MgCl2, 1.25 mM NaH2PO4, 28 mM NaHCO3, 22 mM Glucose, and 0.5 mM Sodium ascorbate) gassed with 5% CO2 and 95% O2 and incubated for 5 min. Sagittal cerebellar slices were cut with a microslicer (Neo-linear slicer NLS-MT; DOSAKA EM) in cutting solution buffer and then incubated in ACSF […]
NaHCO3, 10 mM Glucose) gassed with 5% CO 2 and 95% O 2 at 37 °C.
Acute slices were transferred to glass bottom dishes and treated with 30 nM PFQX1(AF488) in HEPES-based ACSF for 5 min. […]
Scale bars, 500 µm. (F) Quantification of probe intensity in Ε. […]

T3 sequence (P23819 with tags, fused parts or gaps isoform P23819-4 Q607R/DEL765-802): as above
T3 sequence (D3Z7H4 whole entry partner): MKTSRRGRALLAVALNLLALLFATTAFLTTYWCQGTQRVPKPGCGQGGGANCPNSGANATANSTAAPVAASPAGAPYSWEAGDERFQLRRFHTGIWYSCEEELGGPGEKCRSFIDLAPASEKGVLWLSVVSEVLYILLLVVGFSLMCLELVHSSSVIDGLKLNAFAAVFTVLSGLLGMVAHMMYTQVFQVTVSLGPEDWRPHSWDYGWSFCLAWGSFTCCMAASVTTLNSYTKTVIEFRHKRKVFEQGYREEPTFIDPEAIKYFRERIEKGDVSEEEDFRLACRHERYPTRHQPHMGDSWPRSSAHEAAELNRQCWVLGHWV
T1 sequence (Q9Z2W8 21-902): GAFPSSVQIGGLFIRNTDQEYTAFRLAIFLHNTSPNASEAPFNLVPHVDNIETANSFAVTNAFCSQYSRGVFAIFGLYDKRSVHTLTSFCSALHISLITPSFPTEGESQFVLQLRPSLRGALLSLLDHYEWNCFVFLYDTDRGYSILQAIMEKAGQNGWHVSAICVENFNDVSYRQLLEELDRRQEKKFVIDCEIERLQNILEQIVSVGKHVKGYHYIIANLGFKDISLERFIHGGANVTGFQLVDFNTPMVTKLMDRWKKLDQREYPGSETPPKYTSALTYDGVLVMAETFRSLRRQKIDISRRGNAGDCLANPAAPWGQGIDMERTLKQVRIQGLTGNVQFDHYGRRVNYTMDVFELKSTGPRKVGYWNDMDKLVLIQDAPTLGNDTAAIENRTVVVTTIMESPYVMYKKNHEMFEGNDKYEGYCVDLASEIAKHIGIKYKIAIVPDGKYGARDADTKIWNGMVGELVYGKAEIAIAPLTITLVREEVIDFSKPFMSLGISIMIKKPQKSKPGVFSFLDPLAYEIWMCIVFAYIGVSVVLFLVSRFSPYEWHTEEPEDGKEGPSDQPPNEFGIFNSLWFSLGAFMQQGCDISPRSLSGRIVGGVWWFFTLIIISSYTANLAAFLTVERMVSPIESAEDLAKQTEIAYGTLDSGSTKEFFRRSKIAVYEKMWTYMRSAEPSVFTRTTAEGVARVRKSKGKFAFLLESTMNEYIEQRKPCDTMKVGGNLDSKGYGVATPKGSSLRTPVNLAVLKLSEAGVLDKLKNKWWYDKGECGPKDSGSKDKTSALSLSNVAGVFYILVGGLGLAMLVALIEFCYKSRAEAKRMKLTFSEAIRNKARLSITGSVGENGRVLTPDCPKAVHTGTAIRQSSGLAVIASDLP

With `N=c1ccc2c(-c3ccc(C(=O)NCc4ccn(-c5cc6c(cc5C(F)(F)F)[nH]c(=O)c(=O)n6CC(=O)O)c4)cc3C(=O)O)c3ccc(N)c(S(=O)(=O)O)c3oc-2c1S(=O)(=O)O` [PFQX1(AF488)], the Kd on GluA4 stood at 20.2 ± 1.2 nM; at GluA2flip(R) it was 32.3 ± 4.7 nM; at GluA2flip(R) + GSG1L it was 34.5 ± 12.4 nM. Also, the “pH dependency of the fluorescence intensity” value in data set [1] is “relatively unaffected at pH 5 to 10; also recorded: pH-independent manner in the pH 5 to 10 range”. In addition, the “reversibility of binding (medium exchange) in slices” value in the data set with AMPARs is on record as “can be washed out by the medium exchange”.
